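Assay format: 96-well plates, 48-hour exposure. GI50 = concentration required for 50% inhibition of growth. At the TGI there is no net growth.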
Key:
Assay in all cases: NCI-60 cell line screen, 48 h
A498 renal = tested on: A498 renal
A549 NSCLC = tested on: A549 NSCLC
ACHN renal = tested on: ACHN renal
BT-549 breast = tested on: BT-549 breast
CAKI-1 renal = tested on: CAKI-1 renal
CCRF-CEM leukemia = tested on: CCRF-CEM leukemia
COLO 205 colon = tested on: COLO 205 colon
DU-145 prostate = tested on: DU-145 prostate
EKVX NSCLC = tested on: EKVX NSCLC
HCC-2998 colon = tested on: HCC-2998 colon
HCT-15 colon = tested on: HCT-15 colon
HL-60(TB) leukemia = tested on: HL-60(TB) leukemia
HOP-92 NSCLC = tested on: HOP-92 NSCLC
HS 578T breast = tested on: HS 578T breast
HT29 colon = tested on: HT29 colon
IGROV1 ovarian = tested on: IGROV1 ovarian
K-562 leukemia = tested on: K-562 leukemia
LOX IMVI melanoma = tested on: LOX IMVI melanoma
M14 melanoma = tested on: M14 melanoma
MALME-3M melanoma = tested on: MALME-3M melanoma
MCF7 breast = tested on: MCF7 breast
MDA-MB-231 breast = tested on: MDA-MB-231 breast
MDA-MB-435 = tested on: MDA-MB-435
MOLT-4 leukemia = tested on: MOLT-4 leukemia
NCI-H522 lung = tested on: NCI-H522 lung
NCI/ADR-RES ovarian = tested on: NCI/ADR-RES ovarian
OVCAR-4 ovarian = tested on: OVCAR-4 ovarian
OVCAR-8 ovarian = tested on: OVCAR-8 ovarian
PC-3 prostate = tested on: PC-3 prostate
RPMI-8226 leukemia = tested on: RPMI-8226 leukemia
SF-268 CNS = tested on: SF-268 CNS
SF-295 CNS = tested on: SF-295 CNS
SK-MEL-2 melanoma = tested on: SK-MEL-2 melanoma
SK-MEL-28 melanoma = tested on: SK-MEL-28 melanoma
SK-MEL-5 melanoma = tested on: SK-MEL-5 melanoma
SK-OV-3 ovarian = tested on: SK-OV-3 ovarian
SNB-19 CNS = tested on: SNB-19 CNS
SNB-75 CNS = tested on: SNB-75 CNS
SR leukemia = tested on: SR leukemia
SW-620 colon = tested on: SW-620 colon
TK-10 renal = tested on: TK-10 renal
U251 CNS = tested on: U251 CNS
UACC-257 melanoma = tested on: UACC-257 melanoma

Q: What does the source list for `O=C(Nc1cc(C(F)(F)F)cc(C(F)(F)F)c1)Nc1ccc2oc(=O)ccc2c1`?
A: GI50 (A498 renal): 1670 nM; TGI (A498 renal): 4970 nM; GI50 (A549 NSCLC): 2140 nM; TGI (A549 NSCLC): > 100000 nM; GI50 (ACHN renal): 1290 nM; TGI (ACHN renal): > 100000 nM; GI50 (BT-549 breast): 2360 nM; TGI (BT-549 breast): 6560 nM; GI50 (CAKI-1 renal): 1250 nM; TGI (CAKI-1 renal): 4860 nM; GI50 (CCRF-CEM leukemia): 1220 nM; TGI (CCRF-CEM leukemia): > 100000 nM; GI50 (COLO 205 colon): 1750 nM; TGI (COLO 205 colon): 3460 nM; GI50 (DU-145 prostate): 2000 nM; TGI (DU-145 prostate): > 100000 nM; GI50 (EKVX NSCLC): 3920 nM; TGI (EKVX NSCLC): > 100000 nM; GI50 (HCC-2998 colon): 2770 nM; TGI (HCC-2998 colon): > 100000 nM; GI50 (HCT-15 colon): 2110 nM; TGI (HCT-15 colon): > 100000 nM; GI50 (HL-60(TB) leukemia): 705 nM; TGI (HL-60(TB) leukemia): 5740 nM; GI50 (HOP-92 NSCLC): 1410 nM; TGI (HOP-92 NSCLC): 4890 nM; GI50 (HS 578T breast): 2440 nM; TGI (HS 578T breast): 6360 nM; GI50 (HT29 colon): 2470 nM; TGI (HT29 colon): > 100000 nM; GI50 (IGROV1 ovarian): 1510 nM; TGI (IGROV1 ovarian): > 100000 nM; GI50 (K-562 leukemia): 782 nM; TGI (K-562 leukemia): > 100000 nM; GI50 (LOX IMVI melanoma): 1600 nM; TGI (LOX IMVI melanoma): 4370 nM; GI50 (M14 melanoma): 2710 nM; TGI (M14 melanoma): > 100000 nM; GI50 (MALME-3M melanoma): 1870 nM; TGI (MALME-3M melanoma): 5080 nM; GI50 (MCF7 breast): 2880 nM; TGI (MCF7 breast): > 100000 nM; GI50 (MDA-MB-231 breast): 2770 nM; TGI (MDA-MB-231 breast): > 100000 nM; GI50 (MDA-MB-435): 2970 nM; TGI (MDA-MB-435): > 100000 nM; GI50 (MOLT-4 leukemia): 758 nM; TGI (MOLT-4 leukemia): > 100000 nM; GI50 (NCI-H522 lung): 1400 nM; TGI (NCI-H522 lung): 5000 nM; GI50 (NCI/ADR-RES ovarian): 2010 nM; TGI (NCI/ADR-RES ovarian): > 100000 nM; GI50 (OVCAR-4 ovarian): 1250 nM; TGI (OVCAR-4 ovarian): > 100000 nM; GI50 (OVCAR-8 ovarian): 1960 nM; TGI (OVCAR-8 ovarian): > 100000 nM; GI50 (PC-3 prostate): 753 nM; TGI (PC-3 prostate): > 100000 nM; GI50 (RPMI-8226 leukemia): 426 nM; TGI (RPMI-8226 leukemia): 2360 nM; GI50 (SF-268 CNS): 2950 nM; TGI (SF-268 CNS): > 100000 nM; GI50 (SF-295 CNS): 1440 nM; TGI (SF-295 CNS): > 100000 nM; GI50 (SK-MEL-2 melanoma): 1680 nM; TGI (SK-MEL-2 melanoma): 3410 nM; GI50 (SK-MEL-28 melanoma): 2790 nM; TGI (SK-MEL-28 melanoma): > 100000 nM; GI50 (SK-MEL-5 melanoma): 1230 nM; TGI (SK-MEL-5 melanoma): 2510 nM; GI50 (SK-OV-3 ovarian): 2320 nM; TGI (SK-OV-3 ovarian): 5700 nM; GI50 (SNB-19 CNS): 1230 nM; TGI (SNB-19 CNS): > 100000 nM; GI50 (SNB-75 CNS): 1930 nM; TGI (SNB-75 CNS): 6590 nM; GI50 (SR leukemia): 997 nM; TGI (SR leukemia): 5090 nM; GI50 (SW-620 colon): 3020 nM; TGI (SW-620 colon): > 100000 nM; GI50 (TK-10 renal): 2990 nM; TGI (TK-10 renal): > 100000 nM; GI50 (U251 CNS): 1290 nM; TGI (U251 CNS): > 100000 nM; GI50 (UACC-257 melanoma): 2020 nM; TGI (UACC-257 melanoma): 6130 nM
